Here are results for one compound from publication PMC9421655, “Novel Antagonist of the Type 2 Lysophosphatidic Acid Receptor (LPA2), UCM-14216, Ameliorates Spinal Cord Injury in Mice” (Journal of Medicinal Chemistry, 2022).

“Also recorded” adds a separate entry of the source.

Usually melting point stands for the temperature, or range, at which the solid turns liquid. Usually Kd stands for a measure of binding affinity in units of concentration.

A short description of series [1]: In vivo levels of compound in plasma, spinal cord and brain (HPLC-MS). Conditions: 25 mg/kg i.p.
Protocol: At 1, 2, and 4 h after drug administration (n = 3 for each time and sample), mice were sacrificed and their brains, spinal cords, and blood were obtained. The brain and spinal cord were immediately frozen and kept at −80 °C until analysis. Blood was allowed to clot at rt for 30 min and centrifuged at 4 °C for 10 min at 16 000g. Serum was transferred to a clean polypropylene tube and stored at −80 °C until analysis. For analysis, a volume of cold acetonitrile was added to the serum. The sample was incubated in an ice bath for 10 min and centrifuged at 4 °C for 10 min at 16 000g. The resulting organic layer was filtered through a PTFE filter (0.2 μm, 13 mm diameter, Fisher Scientific) and 20 μL of the sample analyzed by LC-MS/MS at the UCM’s Mass Spectrometry CAI. Separation was performed using a Phenomenex Gemini 5 μm C18 110A 150 × 2 mm column (run time 8 min; flow 0.5 mL/min; gradient: 0.5 min 10% Phase B, 2 min 60% Phase B, 4.5–6 min 100% Phase B, 7–8 min 10% Phase B; Phase A: water with formic acid 0.1%; Phase B: acetonitrile). […] The mass spectrometer ion optics were set in the multiple reaction monitoring mode and the transition selected for quantification was 432.90 > 215.10 (CE: −30 V).
For the next series, the target named is T1, LPA3 (Homo sapiens, UniProt Q9UBY5).
T1 sequence (Q9UBY5 1-353): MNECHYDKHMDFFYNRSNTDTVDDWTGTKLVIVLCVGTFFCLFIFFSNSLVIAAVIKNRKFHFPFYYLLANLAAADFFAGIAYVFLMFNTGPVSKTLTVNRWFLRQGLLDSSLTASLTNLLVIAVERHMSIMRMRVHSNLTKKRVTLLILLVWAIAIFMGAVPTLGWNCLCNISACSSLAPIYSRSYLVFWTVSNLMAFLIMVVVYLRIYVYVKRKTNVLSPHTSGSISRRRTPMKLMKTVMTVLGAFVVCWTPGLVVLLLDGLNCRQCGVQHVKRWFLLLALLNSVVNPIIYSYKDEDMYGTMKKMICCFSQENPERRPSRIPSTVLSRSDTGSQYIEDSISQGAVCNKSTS
Briefly: cell-based. Particulars: maximum blockade of activation induced by 10 μM LPA (18:1) at 10 μM compound; N.E. = no effect at 10 μM. As for the experimental part:
Cells stably expressing the corresponding LPA1–3 receptor were grown as described previously.[18] Changes in intracellular calcium levels were measured by using the fluorescent calcium sensitive dye Fluo-4 NW (Invitrogen). RH7777 cells or B103 cells were plated on poly-D-lysine or collagen coated, respectively, black-wall clear-bottom 96-well plates (Corning) at a density of 50 000 cells/well and cultured overnight. The culture medium was then replaced with 100 μL of Fluo-4 NW dye loading solution containing 2.5 μM of probenecid and incubated for 30 min at 37 °C followed by an additional 30 min at rt. […] Fluorescence changes were registered in a FluoStar Optima instrument (BMG Labtech) at 525 nm using an excitation wavelength of 494 nm. […] The data presented are from two to four independent experiments carried out in triplicate or quadruplicate. Dose–response curves were generated and IC50 values calculated by nonlinear regression analysis using Prism software version 5 (GraphPad Software Inc., San Diego, CA, USA).

The nature of series [2]: Metabolic stability in mouse liver microsomes. The series is classed as in vitro ADME. Particulars: male, CD-1, mouse, liver microsomes (pooled), 1 mg/mL protein, NADPH, 37 °C, read-out: stability (t1/2, min) MLMs. On the procedure:
Reactions were initiated by the addition of a suspension of mouse liver microsomes (MLMs) (male CD-1 mice pooled, Sigma-Aldrich) or human liver microsomes (HLMs) (male human pooled, Sigma-Aldrich), respectively, at a final protein concentration of 1 mg/mL. […] Aliquots of 100 μL were quenched at time zero and at seven points ranging to 2 h (MLM) or 4 h (HLM) by pouring into 100 μL of ice-cold acetonitrile. […] The relative disappearance of the compound under study over the course of the incubation was monitored by HPLC-MS using SIM mode. Concentrations were quantified by measuring the area under the peak ([M + H]^+) normalized with an internal standard and converted to the percentage of compound remaining, using the time zero peak area value as 100%. The natural logarithm of the remaining percentage versus time data for each compound was fit to a linear regression, and the slope was used to calculate the degradation half-life (t1/2).
In general terms: Liver microsomes are vesicles of endoplasmic reticulum, rich in cytochrome P450 enzymes.

The target of another series is T2, LPA2 (Homo sapiens, UniProt Q9HBW0).
T2 construct: expressed in transfected cells
Briefly: Free solution assay-compensated interferometric reader (FSA-CIR) binding, LPA2. Particulars: receptor-containing nanovesicles, read-out: binding equilibrium constant (KD) at LPA2. As for the experimental part:
The assay was analyzed using a benchtop Compensated Interferometric Reader (CIR) that measured the light refractive index (ΔRI) change from binding-induced conformational and/or hydration changes produced by real time binding events in a sample (receptor containing nanovesicles plus compound) and compared to a nonbinding reference (RI matched buffer plus compound).[30] Finally, the interferometric signal from vector nanovesicles binding (nonspecific) to compound was subtracted from the LPA2,4–6 containing nanovesicles binding (total) to compound, to determine the specific binding interactions of the compounds to LPA2,4–6. The concentration-dependent change in RI (ΔRI) signal from the compounds to LPA2,4–6 or vector was fitted using the single site total vs nonspecific binding isotherm using GraphPad Prism. Specific KD values were determined by fitting the total minus nonspecific signal to a single site binding isotherm.
The detailed free solution assay method was described previously.[25],[26] All the compounds were dissolved in 100% DMSO, aliquoted, and frozen at −80 °C for 1 week. The compound dilution series was freshly prepared in 0.5% DMSO/PBS (pH 7.4) to keep the maximum compound in solution. […]

A further series deals with T3, LPA2 mutant K22A (Homo sapiens, UniProt Q9HBW0, K19A).
T3 construct: host or cells: McA-RH7777 (CRL-1601, ATCC), transient, pcDNA3.1
The series is described as follows: Ca2+ mobilization in McA-RH7777 cells transfected with LPA2 point mutant K22A. The series is classed as cell-based. Conditions: 54 at 10 μM, 10 μM LPA.

Series [3] relates to spinal cord injury in LPA2 null mice. Briefly: Spinal cord contusion injury model in LPA2 null mice (Basso Mouse Scale). The series is classed as in vivo. Conditions: 25 mg/kg i.p. daily for 10 days. On the procedure: Effect of i.p. injection of 54 (25 mg/kg) or vehicle on locomotor recovery in (A) C57bl/6 mice and (B) LPA2 deficient mice quantified using the 0 (absence of movement) to 9 (completely normal locomotor behavior) Basso Mouse Scale (BMS). Data are expressed as mean ± s.e.m. and correspond to seven animals per group in A and five animals per group in B. * p < 0.05 compared with vehicle-treated group (two-way repeated measures ANOVA with Bonferroni’s post hoc test for multiple comparisons).
All Surgical Procedures Were Approved by the Universitat Autònoma De Barcelona Animal Care Committee (CEEAH 4273) and followed the guidelines of the European Commission on Animal Care (EU Directive 2010/63/EU). Adult female C57Bl/6J mice (10–12 weeks old) and LPA2 null mice were anesthetized by intramuscular injection with a mixture of ketamine and xylazine (90:10 mg/kg). A laminectomy was performed at the 11th thoracic vertebrae and the exposed spinal cord was contused using the Infinite Horizon Impactor device (Precision Scientific Instrumentation) using a force of 60 kdynes. Only mice showing a spinal cord tissue displacement ranging between 450 and 550 μm were selected.

The next series concerns the target T4, LPA2 mutant Q108A (Homo sapiens, UniProt Q9HBW0, Q105A).
T4 construct: host or cells: McA-RH7777 (CRL-1601, ATCC), transient, pcDNA3.1
Briefly: Ca2+ mobilization in McA-RH7777 cells transfected with LPA2 point mutant Q108A. The series is classed as cell-based. Conditions: 54 at 10 μM, 10 μM LPA. A general note: Calcium flux is commonly read through the fluorescence of an indicator in the cells.

Series [4] relates to spinal cord injury in C57Bl/6J mice. Briefly: Spinal cord contusion injury model, locomotor recovery (Basso Mouse Scale). The series is classed as in vivo. Particulars: C57Bl/6 mice.
Description: BMS is the gold standard test used for locomotor scoring after SCI in which two blinder observers score the mouse motor performance based on a nine-point scale.[28]
The target in a further series is T5, LPA2 mutant R107A (Homo sapiens, UniProt Q9HBW0, R104A).
T5 construct: host or cells: McA-RH7777 (CRL-1601, ATCC), transient, pcDNA3.1
The series is described as follows: Ca2+ mobilization in McA-RH7777 cells transfected with LPA2 point mutant R107A. The series is classed as cell-based. Conditions: 54 at 10 μM, 10 μM LPA.

T2 sequence (Q9HBW0 whole entry, species assumed): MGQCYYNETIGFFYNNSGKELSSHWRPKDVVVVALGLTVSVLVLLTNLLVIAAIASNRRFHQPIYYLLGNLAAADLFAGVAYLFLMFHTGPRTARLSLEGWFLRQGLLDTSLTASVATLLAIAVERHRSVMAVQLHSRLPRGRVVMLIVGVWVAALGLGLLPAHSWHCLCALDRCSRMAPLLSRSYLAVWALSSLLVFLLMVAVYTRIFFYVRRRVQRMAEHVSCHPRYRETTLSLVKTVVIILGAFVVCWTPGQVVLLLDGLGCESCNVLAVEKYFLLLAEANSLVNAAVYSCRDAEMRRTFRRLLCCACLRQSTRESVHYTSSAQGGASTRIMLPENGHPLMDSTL
T3 sequence (Q9HBW0 whole entry K19A): as the sequence (Q9HBW0 whole entry, species assumed) above, with K19A counted along it
T5 sequence (Q9HBW0 whole entry R104A): as the sequence (Q9HBW0 whole entry, species assumed) above, with R104A counted along it
T4 sequence (Q9HBW0 whole entry Q105A): as the sequence (Q9HBW0 whole entry, species assumed) above, with Q105A counted along it

`Cc1[nH]nc(-c2ccc(OCc3nnn[nH]3)cc2O)c1Oc1ccc(Cl)cc1Cl` [Compound 54] showed a melting point of 180 to 182 °C. For the same compound, in [1], the “time of maximum levels in spinal cord and brain” value is given as “one hour postadministration”. At LPA3, the “Emax (%) LPA3” value is “inactive and N.E”. Moreover, the half-life at 1 μM in series [2] came to 50 ± 6 min. For the same compound, the Kd at LPA2 was found to be 1.3 nM. In addition, on LPA2 mutant K22A, the “agonist/antagonist activity at LPA2 K22A mutant” value is given as “no significant agonist nor antagonist activity”. For the same compound, the “locomotor recovery after SCI (BMS)” value in series [3] is “did not induce any significant effect; also recorded: inactive”. Also, the “agonist/antagonist activity at LPA2 Q108A mutant” value at LPA2 mutant Q108A is recorded as “no significant agonist nor antagonist activity”. This compound displayed a BMS score in series [4] (25 mg/kg i.p. daily for 10 days from 1 h after lesion, day 50 postinjury, scale 0-9) of 4.1 ± 0.3. Moreover, the “locomotor recovery after SCI (BMS)” value in series [4] (25 mg/kg i.p. daily for 10 days, significant from day 35 postinjury onward) is listed as “significant improvement in locomotor recovery after SCI”. Further, the “agonist/antagonist activity at LPA2 R107A mutant” value at LPA2 mutant R107A is given as “no significant agonist nor antagonist activity”.
